# Laboratory results reported in patent US11760722B2 (priority 2022, dated 2023).
# Where “and” joins values, the source holds several entries; their conditions need not be identical. Identical values can stand only once. Like-named read-outs stand apart in the source and are kept apart here.
# How the values were obtained:
# SARS-CoV-2 replicon = assay: microbe, parasite or virus in culture; type: cell-based
# [1] = test system: human coronavirus (HCoV) 229E; assay: microbe, parasite or virus in culture; type: cell-based, human coronavirus 229E
# Method: Test compounds were provided by the sponsor. Reference compound remdesivir was provided by WuXi AppTec. Compounds were assayed at 8 concentrations (to be defined by sponsor), in duplicate wells.
# MRCS cells were obtained from the ATCC, and maintained in the Minimum Essential Medium supplemented with 10% FBS, 1% L-glutamine, 1% NEAA and 1% penicillin-streptomycin. Minimum Essential Medium supplemented with 5% FBS, 1% L-glutamine, 1% NEAA and 1% penicillin-streptomycin was used as the assay medium.
# Cells were seeded in 96 well plates, in 100 μl per well of assay medium, and cultured at 37° C. and 5% CO2 overnight. Next day, test compound was diluted with assay medium and then added into the cells, 50 μl per well. Then 50 μl per well of assay medium diluted virus was added. The final volume of the cell culture was 200 μl per well. […] The CPE were measured by CellTiter Glo following the manufacturer's manual. The antiviral activity of compounds was calculated based on the protection of the virus-induced CPE at each concentration normalized by the virus control.
# EC50 and CC50 values were calculated using the GraphPad Prism software using the nonlinear regression model of log(inhibitor) vs. response—Variable slope (four parameters).
# [2] = Severe acute respiratory syndrome coronavirus 2, Huh-7, 24 h; read-out: Replicon EC50
# [3] = unidentified human coronavirus, 72 h, MRCS cells, HCoV 229E, 3 days, CellTiter Glo, read-out: 229E CPE EC50
# [4] = MRCS cells, HCoV 229E, 3 days, CellTiter Glo, read-out: 229E CPE EC50
Compound,"EC50 (SARS-CoV-2 replicon; Severe acute respiratory syndrome coronavirus 2, Huh-7, 24 h, read-out: Replicon EC50) [nM]",EC50 (SARS-CoV-2 replicon; read-out: Replicon EC50),"EC50 ([1]; unidentified human coronavirus, 72 h, read-out: 229E CPE EC50, MRCS cells, HCoV 229E, 3 days, CellTiter Glo) [nM]",EC50 (SARS-CoV-2 replicon; [2]) [nM],"EC50 [1, 3] [nM]","EC50 [1, 4] [nM]"
CC(C)(C)OC(=O)N[C@H](C(=O)N1C[C@H]2[C@@H]([C@H]1C(=O)N[C@H](C#N)C[C@@H]1CCNC1=O)C2(C)C)C(C)(C)C [Compound 12],106,119 nM,849,–,–,–
CC(C)(C)[C@H](NC(=O)NC1(CS(=O)(=O)C(C)(C)C)CCCCC1)C(=O)N1C[C@H]2[C@@H]([C@H]1C(=O)N[C@H](C#N)C[C@@H]1CCNC1=O)C2(C)C [Compound 16],–,1880 nM and 2040 nM,–,1290,16800,–
"CC(C)(C)[C@H](NC(=O)C(c1ccccc1)c1ccccc1)C(=O)N1C[C@H]2[C@@H]([C@H]1C(=O)N[C@H](C#N)C[C@@H]1CCNC1=O)C2(C)C [Compound 18, (1R,2S,5S)—N—((S)-1-cyano-2-((S)-2-oxopyrrolidin-3-yl)ethyl)-3-((S)-2-(2,2-diphenylacetamido)-3,3-dimethylbutanoyl)-6,6-dimethyl-3-azabicyclo[3.1.0]hexane-2-carboxamide]",–,1410 nM,–,1260,850,–
CC(C)(C)[C@H](NC(=O)C12CC(C1)C2)C(=O)N1C[C@H]2[C@@H]([C@H]1C(=O)N[C@H](C#N)C[C@@H]1CCNC1=O)C2(C)C [Compound 20],–,232 nM,–,186,2740,–
CC(C)(C)[C@H](NC(=O)[C@H]1CCO1)C(=O)N1C[C@H]2[C@@H]([C@H]1C(=O)N[C@H](C#N)C[C@@H]1CCNC1=O)C2(C)C [Compound 22],–,–,–,3000,19300,–
Cn1c(C(=O)N[C@H](C(=O)N2C[C@H]3[C@@H]([C@H]2C(=O)N[C@H](C#N)C[C@@H]2CCNC2=O)C3(C)C)C(C)(C)C)cc2ccccc21 [Compound 27],–,–,–,964,963,–
CC(C)(C)[C@H](NC(=O)c1cnc2[nH]ccc2c1)C(=O)N1C[C@H]2[C@@H]([C@H]1C(=O)N[C@H](C#N)C[C@@H]1CCNC1=O)C2(C)C [Compound 32],–,–,–,3150,13100,–
CC(C)(C)[C@H](NC(=O)C12CC(F)(C1)C2)C(=O)N1C[C@H]2[C@@H]([C@H]1C(=O)N[C@H](C#N)C[C@@H]1CCNC1=O)C2(C)C [Compound 34],–,300 nM and 420 nM,–,270,534,–
CC(C)(C)[C@H](NC(=O)CC12CC(C1)C2)C(=O)N1C[C@H]2[C@@H]([C@H]1C(=O)N[C@H](C#N)C[C@@H]1CCNC1=O)C2(C)C [Compound 40],–,320 nM and 360 nM and 390 nM,–,270,3120,3260
"CC(C)(C)[C@H](NS(=O)(=O)c1ccc(F)cc1)C(=O)N1C[C@H]2[C@@H]([C@H]1C(=O)N[C@H](C#N)C[C@@H]1CCNC1=O)C2(C)C [Compound 53, (1R,2S,5S)—N—((S)-1-cyano-2-((S)-2-oxopyrrolidin-3-yl)ethyl)-3-((S)-2-((4-fluorophenyl)sulfonamido)-3,3-dimethylbutanoyl)-6,6-dimethyl-3-azabicyclo[3.1.0]hexane-2-carboxamide]",–,100 nM,–,51,265,364
CC(C)(C)[C@H](NS(=O)(=O)c1ccc(Cl)s1)C(=O)N1C[C@H]2[C@@H]([C@H]1C(=O)N[C@H](C#N)C[C@@H]1CCNC1=O)C2(C)C [Compound 54],–,58 nM,–,54,106,127
CC(C)(C)[C@H](NC(=S)NC1CCCC1)C(=O)N1C[C@H]2[C@@H]([C@H]1C(=O)N[C@H](C#N)C[C@@H]1CCNC1=O)C2(C)C [Compound 70],–,–,–,1790,4990,–
CC(C)NC(=S)N[C@H](C(=O)N1C[C@H]2[C@@H]([C@H]1C(=O)N[C@H](C#N)C[C@@H]1CCNC1=O)C2(C)C)C(C)(C)C [Compound 73],–,–,–,140,1320,–
CC(C)(C)[C@H](NC(=S)Nc1ccccc1)C(=O)N1C[C@H]2[C@@H]([C@H]1C(=O)N[C@H](C#N)C[C@@H]1CCNC1=O)C2(C)C [Compound 74],–,–,–,490,11500,–
CC(C)(C)[C@H](NC(=O)C(F)(Cl)C(F)(F)F)C(=O)N1C[C@H]2[C@@H]([C@H]1C(=O)N[C@H](C#N)C[C@@H]1CCNC1=O)C2(C)C (stereo partly drawn) [Compound 75],–,13 nM,–,6.9,92,118
CC(C)(C)[C@H](NC(=S)NC1CC1)C(=O)N1C[C@H]2[C@@H]([C@H]1C(=O)N[C@H](C#N)C[C@@H]1CCNC1=O)C2(C)C [Compound 76],–,480 nM,–,380,6320,7550
CN(C)C(=S)N[C@H](C(=O)N1C[C@H]2[C@@H]([C@H]1C(=O)N[C@H](C#N)C[C@@H]1CCNC1=O)C2(C)C)C(C)(C)C [Compound 77],–,–,–,4120,21100,–
CNC(=S)N[C@@H](CC1CCC1)C(=O)N1C[C@H]2[C@@H]([C@H]1C(=O)N[C@H](C#N)C[C@@H]1CCNC1=O)C2(C)C [Compound 78],–,–,–,1860,12600,–
